The source of these data is PubChem BioAssay (NCI).

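Values below derive from 48-hour exposures of cells grown in 96-well plates, with endpoints linearly interpolated between the two concentrations bracketing the appropriate inhibition level. TGI marks complete inhibition of growth.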 Some results are limits rather than exact numbers.

What all share (test): NCI tumour cell line growth inhibition, 48 h
In experiment [1] the test system is A549 NSCLC.
Experiment [2] has as its system DLD-1 colon.
For experiment [3], the system named is DMS 114 small cell lung.
The test system of experiment [4] is DMS 273 small cell lung.
Experiment [5] deals with HOP-18 NSCLC.
Experiment [6] concerns K-562 leukemia.
For experiment [7], the system named is KM20L2 colon.
The subject of experiment [8] is M19-MEL melanoma.
Experiment [9] concerns MALME-3M melanoma.
The subject of experiment [10] is NCI-H460 lung.
Experiment [11] has as its system SF-295 CNS.
In experiment [12] the test system is SNB-78 CNS.
The subject of experiment [13] is SW-620 colon.
The subject of experiment [14] is UO-31 renal.
For experiment [15], the system named is MDA-MB-231 breast.
In experiment [16] the test system is MDA-N.
For experiment [17], the system named is SF-539 CNS.
Experiment [18] concerns XF 498 CNS.

Consider `O=c1c2ccccc2nc2ccc3c(Cl)[nH][nH]c3c12`, for which the TGI in experiment [1], in experiment [2], in [3], in experiment [4], in [5] and in experiment [6] was greater than 100 µM in each case. In addition, the TGI in experiment [7] was greater than 100 µM; in [8] it was greater than 100 µM; in experiment [9] it was 77.3 µM; in experiment [10], greater than 100 µM; in [11], greater than 100 µM; in experiment [12] it was greater than 100 µM. Further, the TGI in experiment [13] is greater than 100 µM; in [14] it was greater than 92.2 µM.
As to `COc1ccccc1NC(=O)CC(=O)NN`, the TGI in experiment [1], in experiment [6], in experiment [9], in [15], in experiment [16] and in experiment [10] was greater than 100 µM each time. Also, the TGI in [11], in [17], in [13] and in [14] was greater than 100 µM in each case.
As to `CC1(C)C=C(/C=N/Nc2ccccc2)C(C#N)=C(O)C1(C#N)C#N`, the TGI in experiment [1], in experiment [6], in [9], in experiment [15], in experiment [16] and in experiment [10] was greater than 100 µM in each case. The TGI in [11], in experiment [17], in experiment [13] and in experiment [14] was greater than 100 µM throughout.
Take `CC(C)(C)OC(=O)c1ccc(NCC2=C(Br)C(=O)C=CC2=O)cc1`: the TGI is greater than 100 µM in experiment [1]; greater than 58 µM in [6]; 30.6 µM in experiment [9]; 47 µM in experiment [15]; 48.1 µM in [16]; greater than 83.6 µM in experiment [10]. Moreover, the TGI is greater than 100 µM in experiment [11], 52.8 µM in experiment [17], 34.9 µM in [13] and 28.6 µM in experiment [14].
Take `CCCCCCCCC#CCCCCCCCCCC[C@@H]1C(=O)O[C@H](C)[C@@H]1O` (tested in a mixture with another compound): the TGI in experiment [1] turned out to be 28.6 µM; in experiment [6] it was 21.4 µM; in [9], 44 µM; in experiment [15] it was 94.6 µM; in experiment [16], 79.6 µM; in experiment [10], 35.8 µM. In addition, the TGI in experiment [11] was 65.4 µM; in experiment [17] it was 42.1 µM; in experiment [13], 36.4 µM; in [14] it was 35.3 µM.
For `CC(=O)OCC1OC(n2c(C)c(C)c(C)c(C#N)c2=S)C(OC(C)=O)C(OC(C)=O)C1OC(C)=O` (stereo not given), the TGI in experiment [1], in experiment [6], in [9], in experiment [15], in [16] and in experiment [10] was greater than 100 µM throughout. Besides, the TGI is 61.4 µM in experiment [11], greater than 100 µM in experiment [17], greater than 100 µM in experiment [13] and 59.7 µM in experiment [14].
Regarding `CCOC(=O)Nc1ccc(S(=O)(=O)Nn2cnnc2)cc1`, the TGI in [1] was greater than 100 µM; in experiment [6], 77.9 µM; in experiment [9], greater than 100 µM; in experiment [15] it was greater than 100 µM; in experiment [16], 73.9 µM; in experiment [10], greater than 100 µM. The TGI is greater than 100 µM in experiment [11], 65.1 µM in experiment [17], greater than 100 µM in experiment [13] and greater than 100 µM in experiment [14].
Turning to `CCCCCCCCOc1ccc(/C=C/C2=[N+](CCO)CCO2)cc1`, the TGI in experiment [1] came to 10.7 µM; in [6], 4.87 µM; in [9] it was 12.2 µM; in [15], 11.4 µM; in [16] it was 12.3 µM; in [10] it was 10.5 µM. Moreover, the TGI came out at 16.9 µM in experiment [11], 11 µM in [17], 6.8 µM in [13] and 25.1 µM in experiment [14].
Take `COc1nc(C#CC2CCCCC2)nc(OC)n1`: the TGI came out at 16.4 µM in experiment [1]; 28.4 µM in experiment [6]; 6.49 µM in experiment [9]; 13.2 µM in experiment [15]; 25.2 µM in experiment [16]; 26.6 µM in [10]. The TGI in experiment [11] amounted to 18 µM; in [17], 6.31 µM; in experiment [13] it was 15.6 µM; in [14], 12.2 µM.
Take `Clc1ccc(C2=CCN3CC=C(c4ccc(Cl)cc4)C23)cc1`: the TGI in [1] amounted to 28.3 µM; in [6], 45.2 µM; in [9] it was 27.3 µM; in [15] it was 25 µM; in experiment [16], 22.7 µM; in experiment [10] it was 22.4 µM. Moreover, the TGI in experiment [11] was 28.9 µM; in experiment [17], 31.1 µM; in [13], 26 µM; in experiment [14], 20 µM.
With `O=C(OCc1ccccc1)N1CCNCCNCCN(C(=O)OCc2ccccc2)CCNCC1`, the TGI was greater than 100 µM in experiment [1]; 29.8 µM in experiment [6]; 36.5 µM in experiment [9]; 65.1 µM in [15]; 31.3 µM in experiment [16]; 52.1 µM in [10]. For the same molecule, the TGI in experiment [11] stood at 33.7 µM; in experiment [17], 32.8 µM; in experiment [13] it was 32.8 µM; in experiment [14], 27.8 µM.
With `CCC(=O)OC1CCn2c1nc1c2C(=O)C(C)=C(NC(C)=O)C1=N` (stereo not given), the TGI is 10.2 µM in experiment [1]; 3.19 µM in experiment [2]; 3.53 µM in experiment [3]; 3.11 µM in experiment [4]; 3.26 µM in experiment [5]; greater than 100 µM in [6]. In addition, the TGI in experiment [7] was 3.38 µM; in experiment [8], 0.365 µM; in experiment [9], 2.74 µM; in experiment [10], 3 µM; in experiment [11], 4.12 µM; in [17], 3.21 µM. In addition, the TGI in experiment [12] is 6.05 µM; in experiment [13], 2.44 µM; in experiment [14], 4.64 µM; in [18], 4.31 µM.
